# Structures can show the parent of a compound that is named as a salt.
# Columns and labels:
# patient = assay: one-year high-dose tolerability in a patient; type: in vivo, human; settings: up to 6,000 mg/day for one year in a patient
# [1] = test system: post-COVID-19 fatigue patient; assay: post-COVID-19 fatigue case (Example 5); type: in vivo, human; settings: 500 mg BID
# Method: Afterwards, although their fever was resolved, they experienced fatigue so extreme that it was difficult for them to walk to the bathroom. They started taking 500 mg anhydrous enol-oxaloacetate BID for 45 days. Within 3 days 80% of fatigue was resolved. After 30 days, 100% of their fatigue was resolved.
# [2] = test system: Amyotrophic Lateral Sclerosis (ALS) patients; assay: Phase 1 clinical trial in ALS, patient testimonials; type: in vivo, human; settings: 1000 mg BID, dose taken without food; went away on eating
# Method: A Phase 1 clinical trial was conducted with the Inventor supplying the anhydrous enol-oxaloacetate drug. Typically, Phase 1 clinical trials focus on the safety of a proposed drug, but patient response efficacy is also important and is noted. […] My name is […]. I was diagnosed with Bulbar onset ALS by Dr. Jawdat at the KU Medical Center in Kansas City KS on Oct. 14, 2020. […] I have muscle fasciculations pretty much all over my body at times and most are constant. The first 4 to 5 days taking the supplement, I did feel like they intensified an hour to two hours after taking it, and it lasted for approximately an hour or two. After those 4 or 5 days, it went back to the normal strength. At approximately the third week of taking the supplement I began to notice my tongue movement had better range of motion. I could see it pushing out the side of my cheek, I couldn't get it over there before. I also have felt like my left hand has gained a little strength and grip and I feel like I have a bit more strength in my left wrist. I do however feel like most things are still declining, but with such a short time of trying the supplement, I want to keep taking it to see if things can keep improving/changing. I am currently not on any ALS medications but do take some vitamins. • Patient 2. My spouse, Nathan, was part of a study with oxaloacetate for ALS. […]
# [3] = test system: post-COVID-19 fatigue patient; assay: post-COVID-19 fatigue case, physician (Example 3); settings: 500 mg BID; for Visual Fatigue Score: baseline 3, range 0 worst to 10 no fatigue; for Chalder Fatigue Score: range 33 worst to 0 no fatigue; for Fatigue Severity Score: baseline 54, range 63 worst to 9 no fatigue; for PROMIS Fatigue 7a: range 35 worst to 7 no fatigue
structure (smiles),measurement,setting,value
"O=C(O)CC(=O)C(=O)O [anhydrous enol-oxaloacetate, hydroxy fumarate]",side effects,patient,no negative side effects
same,fatigue resolved,[1]; after 30 days,100%
same,fatigue resolved,[1]; within 3 days,80%
same,side effect noticed by the patient,[2],upset stomach
same,Visual Fatigue Score,"[3]; Final, Dec. 3, 2020",10
same,Chalder Fatigue Score,"[3]; Final, Dec. 3, 2020, baseline 22",2
same,Fatigue Severity Score,"[3]; Final, Dec. 3, 2020",20
same,PROMIS Fatigue 7a,"[3]; Final, Dec. 3, 2020",11
same,Visual Fatigue Score,"[3]; Nov. 3, 2020",4
same,Fatigue Severity Score,"[3]; Nov. 3, 2020",54
same,PROMIS Fatigue 7a,"[3]; Nov. 3, 2020, baseline N/A",25
same,Chalder Fatigue Score,"[3]; Nov. 3, 2020, baseline Oct. 14, 2020 22",16

# Reference: patent publication US20240075000A1 (priority 2021, published 2024)
